Test results taken from US7572439B2, “Enzyme disruption of bacterial biofilms” (priority 2002, dated 2009).

Legend:
S. aureus biofilms = experiment: Biofilm assay: S. aureus biofilms in 96 well plates or plate inserts, safranin stain or SEM; type: cell-based; settings: 50 μg/ml in PBS, three hours
S. epidermidis biofilms = experiment: Disruption of S. epidermidis biofilms on glass chamber slide; type: cell-based; parameters: dose or concentration left out as unconfirmed
From the text: Three S. epidermidis strains with various capacities for glycocalyx (slime) production were examined including, S. epidermidis strain Hay (a low slime producer), S. epidermidis strain SEI 175 (a moderate slime producer) and S. epidermidis ATCC 35984 (a high slime producer). All three of these S. epidermidis strains produced biofilms on a glass chamber slide (FIG. 9) with ATCC 35984 producing the thickest and most darkly staining biofilm as expected. […] S. aureus strain SA113 was included in this experiment as a control. […] The stained material visible in lysostaphin treated wells is extracellular glycocalyx which stained pink by safranin and contained no intact gram positive S. epidermidis cells, only cellular debris.

S. aureus strain SA5 = experiment: Killing of bacteria in lysostaphin-coated polystyrene wells; type: cell-based; settings: for CFU (n = 2): Table 13, Polystyrene
Description: Six wells were incubated with 300 μl of either 10 mg/ml, 1 mg/ml or 100 μg/ml of lysostaphin diluted in PBS. All the samples were done in duplicates. The plate was allowed to incubate overnight at 4° C. The following morning the wells were washed with 1 ml of PBS ten times, using vacuum suction to clean out the wells. S. aureus strain SA5 was diluted in PBS to a percent transmittance of 40. A 1:10,000 dilution of this solution was made, and 300 μl was added to each well. The plates were put in a shaking incubator at 75 rpm for two hours at 37° C. After two hours, 40 μl from each well was taken out and plated onto a blood agar plate and put in the incubator overnight at 37° C. The colonies on the plates were counted the following morning.
Coating of polystyrene wells. Wells were coated with 300 μl of 10 mg/ml, 1 mg/ml or 0.1 mg/ml of lysostaphin diluted in PBS. The plate was incubated overnight at 4° C. Wells were washed with 1 ml of PBS ten times, and washes were removed by vacuum suction. 300 μl of a 5×10^4 CFU/ml solution of S. aureus was added to each well. The plate was shaken at 75 rpm for two hours at 37° C. 40 μl from each well was then removed and streaked onto a blood agar plate and incubated overnight at 37° C.

S. aureus [1] = experiment: Killing of bacteria in lysostaphin-coated Angiocath catheters; type: cell-based
Description: Two Angiocath catheters (Becton Dickinson) were incubated with 200 PI of a 100 μg/mL solution of lysostaphin, while two others were incubated in PBS. The catheters were allowed to incubate overnight at 4° C. The following morning the catheters were washed with 50 ml PBS using a pump with a flow rate of 1.5 ml/minute. Once the catheters were washed, S. aureus SA5 was diluted in PBS to a percent transmittance of 40. A 1:10,000 dilution of this solution was made, and 100 μl was added to each catheter. The catheters were allowed to incubate for two hours at 37° C. Following incubation, the catheter effluent was plated onto blood agar plates and put in the incubator overnight at 37° C. The colonies on the plates were counted the following morning.
Coating of Catheters. The needles from the AngioCath catheters were removed and disposed. Using a 1 ml syringe, the catheters were coated with 200 μl of a 0.1 mg/ml solution of lysostaphin. The catheters were incubated for 1 hour, unless otherwise specified, at room temperature. The catheters were then washed with 50 ml of phosphate buffered saline using a peristaltic pump with a flow rate of 1.5 ml/minute. The catheters were then inoculated with 120 μl of a ˜5×10^4 CFU/ml solution of bacteria (diluted in TSB) and incubated for 2 hours at 37° C. The catheter effluent was then streaked onto a blood agar plate and incubated overnight at 37° C.

SA5 = experiment: Leaching of lysostaphin off coated surfaces; type: cell-based, S. aureus
Description: Leaching of Lysostaphin. To test whether lysostaphin was slowly being released from the catheter into the lumen solution, lysostaphin coated catheters were incubated with 100 μl PBS for 2 hours at 37° C. The PBS was then transferred into an Eppendorf tube and 10^5 CFU of SA5 was added to the effluent and incubated for 1 hour at 37° C. 40 μl from the samples were streaked onto blood agar plates and incubated overnight at 37° C. Alternatively, lysostaphin coated catheters were incubated with PBS overnight at 37° C. The following morning the PBS was washed out and the catheters were inoculated with ˜5×10^4 CFU/ml SA5 for 2 hours at 37° C. The effluent was then streaked onto blood agar plates and incubated at 37° C. overnight. To look for leaching off the polystyrene surface, the wells were coated with 10, 1 and 0.1 mg/ml lysostaphin for 60 minutes. The wells were then washed, and 300 μl of PBS was added to the wells for 2 hours and then removed 300 μl of a 5×10^4 CFU/ml solution of SA5 was added to the PBS wash and allowed to incubate for one hour at 37° C. 40 μl was then removed and streaked onto a blood agar plate and incubated overnight at 37° C.

S. aureus [2] = experiment: Lysostaphin activity on catheters in presence of serum proteins; type: cell-based

lysostaphin
biofilm disruption (safranin stain) (S. aureus biofilms; S. aureus strain MBT 5040 (MRSA), room temperature): completely disrupted | biofilm disruption of lysostaphin-resistant strains (safranin stain) (S. aureus biofilms; lysostaphin-resistant S. aureus): failure of lysostaphin to disrupt biofilms | intact bacteria on surface after treatment (microscopic examination) (S. epidermidis biofilms; three hours (data not shown)): no intact bacteria left | disruption of S. epidermidis biofilms (safranin) (S. epidermidis biofilms; three hours, strains Hay, SE1175, ATCC 35984): disrupted the biofilms of all three strains | CFU (n = 2) (S. aureus strain SA5; coating concentration 0.1 mg/ml): 3 CFU | CFU (n = 2) (S. aureus strain SA5; coating concentration 1 mg/ml): 1 CFU | CFU (n = 2) (S. aureus strain SA5; coating concentration 10 mg/ml): 1 CFU | log reduction in bacterial counts (S. aureus strain SA5; bacteria added directly to the 0.1 mg/mL coated wells): 2.4 log | reduction in bacterial counts (S. aureus strain SA5; lysostaphin coated polystyrene wells vs control wells): 99.5% | CFU's remaining in lysostaphin coated wells, on average (S. aureus strain SA5; polystyrene wells, 610 CFU's in control wells): 3 CFU | CFU (S. aureus [1]; Angiocath, coating 100 μg/ml overnight 4° C., SA5 two hours 37° C.): 0 CFU | CFU (n = 2) (S. aureus [1]; Table 13, AngioCath, coating concentration 0.1 mg/ml): 0 CFU | CFU (n = 2) (S. aureus [1]; catheter coating 0.1 mg/ml, MRSA (MBT5040)): 1 CFU | CFU (n = 2) (S. aureus [1]; catheter coating 0.1 mg/ml, SA5): 1 CFU | CFU (n = 2) (S. aureus [1]; catheter coating 0.1 mg/ml, SA8): 0 CFU | reduction of bacterial counts (S. aureus [1]; catheters coated 5 minutes with 0.1 mg/ml): 98.7% | reduction of bacterial counts (S. aureus [1]; catheters coated 10 minutes with 0.1 mg/ml): 99.4% | reduction of bacterial counts (S. aureus [1]; catheters coated 15 minutes with 0.1 mg/ml): completely cleared | clearing of bacteria from coated catheters (S. aureus [1]; catheters incubated with SA8): completely cleared | CFU recovered from the catheters, on average (S. aureus [1]; coated catheters incubated with MRSA (MBT5040)): 1 CFU | clearing of bacteria from coated catheters (S. aureus [1]; vs 493 CFU's from control catheters): completely cleared of bacteria | CFU (n = 3) (SA5; Angiocath, coating 0.1 mg/ml, saline incubation 2 hr, bacteria added to PBS wash): 219 CFU | CFU (n = 3) (SA5; Angiocath, coating 0.1 mg/ml, saline incubation 24 hr, bacteria added to catheter): 0 CFU | CFU (n = 3) (SA5; Polystyrene, coating 0.1 mg/m, saline incubation 2 hr, killing in wash): 291 CFU | CFU (n = 3) (SA5; Polystyrene, coating 1 mg/ml, saline incubation 2 hr, killing in wash): 33 CFU | CFU (n = 3) (SA5; Polystyrene, coating 10 mg/ml, saline incubation 2 hr, killing in wash): 26 CFU | reduction in bacterial counts by PBS wash from coated catheters (SA5; bacteria added to PBS wash): only minimal reduction in bacterial counts | log reduction in bacterial counts due to leaching (SA5; polystyrene, 0.1 mg/ml coating, PBS wash): 0.33 log | log reduction of SA5 titers by wash compared to control (SA5; polystyrene, 1 mg/ml coating, PBS wash): 1.3 log | log reduction of SA5 titers by wash compared to control (SA5; polystyrene, 10 mg/ml coating, PBS wash): 1.4 log | clearing of bacteria by coated catheters after overnight wash with PBS (SA5; vs 1500 CFU's from untreated catheters): complete clearing of bacteria | reduction in bacterial counts (S. aureus [2]; 0.1 mg/ml coated catheters incubated with human serum 24 hours): 99% | clearing of bacteria (S. aureus [2]; 10 and 1 mg/ml coated catheters incubated with human serum): completely cleared the bacteria
